Target: T1, human orexin type 2 receptor (Homo sapiens, UniProt O43614)
T1 construct: expressed in transfected cells
T1 sequence (O43614 1-444): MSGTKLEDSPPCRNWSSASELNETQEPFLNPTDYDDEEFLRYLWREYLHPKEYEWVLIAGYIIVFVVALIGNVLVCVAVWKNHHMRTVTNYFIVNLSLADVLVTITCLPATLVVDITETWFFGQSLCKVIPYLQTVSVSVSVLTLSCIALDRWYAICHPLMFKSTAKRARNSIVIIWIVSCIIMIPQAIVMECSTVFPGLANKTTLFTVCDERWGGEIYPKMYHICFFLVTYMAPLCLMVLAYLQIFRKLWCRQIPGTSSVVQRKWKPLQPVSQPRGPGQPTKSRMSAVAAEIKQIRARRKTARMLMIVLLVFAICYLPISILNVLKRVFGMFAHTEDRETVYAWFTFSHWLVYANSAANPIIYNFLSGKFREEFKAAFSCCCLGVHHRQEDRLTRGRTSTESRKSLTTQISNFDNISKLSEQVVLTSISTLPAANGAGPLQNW
Assay: Measurement of orexin type 2 receptor agonist activity (calcium fluorescence, Fluo-4 AM, FDSS)
Assay type: cell-based
Details: compound at 3 μM; CHO cells forcibly expressing human OX2 receptor; DMSO = 0%, orexin A (human) 10 nM = 100%
Excerpt: Experimental Example 1: Obtainment of Cell Stably Expressing Human Orexin Type 2 Receptor (hOX2R)
To obtain a cell clone stably expressing human orexin type 2 receptor, human orexin type 2 receptor cDNA was inserted into pcDNA3.1(+) plasmid vector (Invitrogen), and a plasmid DNA for expression of human orexin type 2 receptor (pcDNA3.1(+)/hOX2R) was cloned. The plasmid DNA was introduced into CHO-dhfr cell by an electroporation method, and human orexin type 2 receptor expressing clone cells were obtained by limiting dilution method by using G418 drug resistance as a selection marker.
Experimental Example 2: Measurement of Orexin Type 2 Receptor Agonist Activity
CHO cells forcibly expressing human OX2 receptor were seeded in each well of 384 well black transparent bottom plate (BD Falcon) at 7,500 cells/well, and cultured for one day in a 5% CO2 incubator at 37° C. After removal of the medium in the cell plate, assay buffer A containing a calcium indicator (HBSS (Thermo Fisher Scientific), 20 mM HEPES (Thermo Fisher Scientific), 0.1% BSA (Wako Pure Chemical Industries, Ltd. or Sigma-Aldrich), 2.5 μg/mL Fluo-4 AM (DOJINDO Chemical), 0.08% Pluronic F127 (DOJINDO Chemical), 1.25 mM probenecid (DOJINDO Chemical)) was added at 30 μL/well. The plate was stood for 30 min in a 5% CO2 incubator at 37° C., and further stood at room temperature for 30 min. A test compound prepared by diluting with assay buffer B (HBSS, 20 mM HEPES, 0.1% BSA) was added at 10 μL/well, and the fluorescence value was measured by FDSSμCELL (Hamamatsu Photonics K.K.) every one sec for 1 min, and thereafter every two sec for 1 min 40 sec. The activity (%) of the test compound was calculated assuming that variation in the fluorescence value when DMSO was added instead of the test compound was 0%, and variation in the fluorescence value when orexin A (human) (PEPTIDE INSTITUTE, INC.) was added at the final concentration of 10 nM was 100%. The activity of each compound at the concentration of 3 μM was shown below.

Row | Structure (SMILES) | OX2R agonist activity (3 μM, %)
1 | CN(C)C(=O)C(=O)N[C@H]1CCN(C(=O)C2(F)CCC2)[C@H]1Cc1cccc(-c2cccc(F)c2)c1 [Example 35, N^~2^~-[(2S,3S)-2-[(3′-fluoro[1,1′-biphenyl]-3-yl)methyl]-1-(1-fluorocyclobutane-1-carbonyl)pyrrolidin-3-yl]-N^~1^~,N^~1^~- dimethylethanediamide] | 75%
2 | COC1(C(=O)N[C@H]2CCN(C(=O)C3CCC3)[C@H]2Cc2cccc(-c3cccc(F)c3)c2)CC1 (relative stereo) [Example 11, N-{cis-1-(cyclobutanecarbonyl)-2-[(3′-fluoro[1,1′-biphenyl]-3-yl)methyl]pyrrolidin-3-yl}-1-methoxycyclopropane-1-carboxamide] | 93%
3 | O=C(CO)N[C@H]1CCN(C(=O)C2CCC2)[C@H]1Cc1cccc(-c2cccc(F)c2)c1 (relative stereo) [Example 6, N-{cis-1-(cyclobutanecarbonyl)-2-[(3′-fluoro[1,1′-biphenyl]-3-yl)methyl]pyrrolidin-3-yl}-2-hydroxyacetamide] | 60%
4 | CN(C)C(=O)C(=O)N[C@H]1CCN(C(=O)C2CCC2)[C@H]1Cc1cccc(-c2cccc(F)c2)c1 [Example 32, N^~2^~-{(2S,3S)-1-(cyclobutanecarbonyl)-2-[(3′-fluoro[1,1′-biphenyl]-3-yl)methyl]pyrrolidin-3-yl}-N^~1^~,N^~1^~- dimethylethanediamide] | 103%

Second part, the molecule after the results:

Row | OX2R agonist activity (3 μM, %) | Structure (SMILES)
5 | 92% | O=C(N[C@H]1CCN(C(=O)C2CCC2)[C@H]1Cc1cccc(-c2cccc(F)c2)c1)C1CCCO1 (relative stereo) [Example 5, N-{cis-1-(cyclobutanecarbonyl)-2-[(3′-fluoro[1,1′-biphenyl]-3-yl)methyl]pyrrolidin-3-yl}oxolane-2-carboxamide]
6 | 104% | O=C(N[C@H]1CCN(C(=O)N2CCC2)[C@H]1Cc1cccc(-c2cccc(F)c2)c1)[C@@H]1CCCO1 [Example 31, (2S)-N-{(2S,3S)-1-(azetidine-1-carbonyl)-2-[(3′-fluoro[1,1′-biphenyl]-3-yl)methyl]pyrrolidin-3-yl}oxolane-2-carboxamide]
7 | 86% | O=C(N[C@H]1CCN(C(=O)C2(O)CCC2)[C@H]1Cc1cccc(-c2cccc(F)c2)c1)[C@@H]1CCCO1 [Example 45]
8 | 67% | CC(C)(CO)C(=O)N1CC[C@H](NC(=O)[C@@H]2CCCO2)[C@@H]1Cc1cccc(-c2cccc(F)c2)c1 [Example 46, (2S)-N-[(2S,3S)-2-[(3′-fluoro[1,1′-biphenyl]-3-yl)methyl]-1-(3-hydroxy-2,2-dimethylpropanoyl)pyrrolidin-3-yl]oxolane-2-carboxamide]
